Results on 14 compounds are retold here after patent publication US4550115A, “Certain piperidino-lower-alkylene esters of 3-methylflavone-8-carboxylates possessing smooth muscle relaxant activity” (Recordati S.A., Chemical & Pharmaceutical Company, priority 1981, dated 1985).

Series [1] relates to guinea pig depolarized taenia coli. The experiment in a line: Calcium blocking activity on guinea pig depolarized taenia coli (Ferrari and Carpenedo). As to conditions: Cavia porcellus; cumulative CaCl2, K+-depolarized guinea pig taenia coli; read-out: Calcium blocking activity ED50. On the procedure: The calcium blocking activity was tested on guinea pig depolarized taenia coli, according to the method described by Ferrari and Carpenedo [Arch. Int. Pharmacodyn., 174, 223 (1968)]. The guinea pig taenia coli was allowed to stabilize in Tyrode solution without Ca^++. It was then washed with K2 SO4 Ringer solution and afterwards perfused with KNO3 Ringer. Cumulative concentrations of CaCl2 were added to the organ bath in absence or presence of the test drug.

For the next series, the system named is guinea pig ileum. The series is described as follows: Antispastic or antispasmodic activity, BaCl2-induced contraction of guinea pig ileum (Magnus method). The note with it: Cavia porcellus, 1 min, read-out: ED50 (antispastic or antispasmodic activity).
Series [2] has as its system guinea pig isolated ureter. The series is described as follows: Antispastic activity, spontaneous mobility of guinea pig isolated ureter (Trendelemburg method). As to conditions: Cavia porcellus.
Method: The smooth muscle relaxant activity of the novel flavone derivatives was also measured through the spontaneous mobility of guinea pig isolated ureter. […] The ureter was allowed to stabilize in Tyrode solution with the upper part closed and the inner part connected to a pressure transducer. The test drugs were given cumulatively and the spontaneous circular and longitudinal contractions of the ureter were measured.
A short description of the next series: in vivo. As to conditions: mouse.
A further series can be described thus: physchem. The note with it: phosphate buffer, pH 7.4.
The mark [3] stands for this setting: guinea pig ileum, 30° C., BaCl2 1 to 4.10^-4 M, drug one minute before BaCl2, inhibition of contraction.
The mark [4] stands for this setting: circular contractions, cumulative dosing, read-out: Antispastic Activity Isolated Ureter ED50, circular contractions.
[5] abbreviates: longitudinal contractions, cumulative dosing, read-out: Antispastic Activity Isolated Ureter ED50, longitudinal contractions.

Counter-ions that a name gives are not always drawn. Like-named read-outs stand apart in the source and are kept apart here.

Method for guinea pig ileum: The antispastic or antispasmodic activity was evaluated following the Magnus method [Pflugers Arch. […] Two equal contractions were induced by BaCl2 at a concentration ranging between 1 and 4.10^-4 M in guinea pig ileum maintained at 30° C. in Ringer solution and aerated with Carbogen.
The test drug was administered and, one minute later, BaCl2 in the same concentration. The inhibition of the contraction was observed.
Method for physchem: Such stability was measured at 37° C. in simulated gastric fluid (U.S. Pat. No. XX, 1105, 1980) and in phosphate buffer (pH 7.4) by spectrodensitometric determination of 3-methylflavone-8-carboxylic acid resulting from eventual hydrolysis.

For orientation: LD50 means the dose at which mortality reaches 50%. A lower LD50 goes with a more toxic substance. As a reminder, the amount remaining is the share of the starting amount still present when the sample was taken. A high value points to less turnover. As for `Cc1c(-c2ccccc2)oc2c(C(=O)O[C@@H]3CCCC[C@@H]3N3CCCCC3)cccc2c1=O.Cl` (relative stereo) [Active compound 8, cis-2-piperidino-cyclohexyl 3-methyl-flavone-8-carboxylate hydrochloride], the IC50 was found to be 7.3 µM in series [1], 2.7 µM in the series with guinea pig ileum (setting [3]), 5 µM in series [2] (setting [4]) and 2.5 µM in series [2] (setting [5]). This compound also yielded an LD50 in the series “in vivo” (po) of 2160 µmol/kg. Besides, the share remaining at 1 h in the series “physchem” was 85%. The same compound registered an amount remaining at 3 h in “physchem” of 70%.

As to `Cc1c(-c2ccccc2)oc2c(C(=O)O[C@@H]3CCCC[C@H]3N3CCCCC3)cccc2c1=O` (relative stereo) [Active compound 14], in the series on guinea pig ileum (setting [3]), the IC50 was determined as 7.7 µM.

As for `Cc1c(-c2ccccc2)oc2c(C(=O)OCCCN3CCCCC3C)cccc2c1=O` (centres unmarked) [Active compound 1, 3-(2-methyl-N-piperidino)-propyl 3-methylflavone-8-carboxylate hydrochloride], the IC50 in series [1] is 24 µM; in the series with guinea pig ileum (setting [3]), 4 µM; in series [2] (setting [4]) it was 8.5 µM; in series [2] (setting [5]), 6.9 µM. Besides, the results for the LD50 in “in vivo” (ip) and in “in vivo” (po) were 560 µmol/kg and 1860 µmol/kg, respectively. Also, the amount remaining at 1 h in “physchem” was 100%. Besides, the amount remaining at 3 h in “physchem” was found to be 100%.

For the compound `Cc1c(-c2ccccc2)oc2c(C(=O)OC(C)CCN3CCCCC3)cccc2c1=O` (centres unmarked) [Active compound 2, 1-methyl-3-(N-piperidino)propyl], the IC50 in series [1] came out at 16 µM; in the series on guinea pig ileum (setting [3]), 6.2 µM. Moreover, the LD50 is 160 µmol/kg in “in vivo” (ip) and 690 µmol/kg in “in vivo” (po). The compound further gave a fraction remaining at 1 h in the series “physchem” of 100%. This compound also registered a share remaining at 3 h in “physchem” of 100%.

Turning to `Cc1c(-c2ccccc2)oc2c(C(=O)OC(C)CN3CCCCC3)cccc2c1=O` (centres unmarked) [Active compound 3, 1-methyl-piperidino-ethyl], the IC50 came out at 19 µM in series [1] and 9.7 µM with guinea pig ileum (setting [3]). Besides, the LD50 came to 500 µmol/kg in the series “in vivo” (ip) and 850 µmol/kg in the series “in vivo” (po). The compound also had a share remaining at 1 h in the series “physchem” of 40%. In addition, in “physchem”, the fraction remaining at 3 h stood at 30%.

Turning to `Cc1c(-c2ccccc2)oc2c(C(=O)OC(CN3CCCCC3)c3ccccc3)cccc2c1=O` (centres unmarked) [Active compound 4, 1-phenyl-2-piperidino-ethyl], the IC50 with guinea pig ileum (setting [3]) was 6.7 µM. In “physchem”, this compound yielded a share remaining at 1 h of 68% and a share remaining at 3 h of 34%.

Take `Cc1c(-c2ccccc2)oc2c(C(=O)OC(C)(C)CN3CCCCC3)cccc2c1=O` [Active compound 5, 1,1-dimethyl-2-(N-piperidino)ethyl-3-methylflavone-8-carboxylate]: the IC50 in series [1] was 8.6 µM; in the series with guinea pig ileum (setting [3]), 2.4 µM; in series [2] (setting [4]), 12 µM; in series [2] (setting [5]) it was 2.8 µM. In addition, in “physchem”, the share remaining at 1 h is 96%. The fraction remaining at 3 h in “physchem” was found to be 91%.

As to `Cc1c(-c2ccccc2)oc2c(C(=O)OC(C)(C)CN3CCCCC3C)cccc2c1=O` (centres unmarked) [Active compound 6], the IC50 in series [1] came to 7.5 µM; in the series on guinea pig ileum (setting [3]), 3.4 µM; in series [2] (setting [4]), 5.3 µM; in series [2] (setting [5]), 2.5 µM. Moreover, in “physchem”, the fraction remaining at 1 h turned out to be 100%. In “physchem”, this compound came in with a fraction remaining at 3 h of 100%.

`Cc1c(-c2ccccc2)oc2c(C(=O)OCC(O)CN3CCCCC3)cccc2c1=O` (centres unmarked) [Active compound 7, 2-hydroxy-3-(N-piperidino)propyl 3-methylflavone-8-carboxylate] gave a median lethal dose (LD50) in the series “in vivo” (ip) of 580 µmol/kg. For the same compound, the LD50 in “in vivo” (po) was 3100 µmol/kg. In “physchem”, this compound came in with an amount remaining at 1 h of 44% and a share remaining at 3 h of 25%.

`Cc1c(-c2ccccc2)oc2c(C(=O)OC3CCCCC3CN3CCCCC3)cccc2c1=O` (centres unmarked) [Active compound 9, 2-piperidinomethyl cyclohexyl]: the IC50 was 26 µM in series [1] and 4 µM in the series with guinea pig ileum (setting [3]). Further, the LD50 in the series “in vivo” (ip) was 190 µmol/kg; in the series “in vivo” (po) it was 1080 µmol/kg. The compound further returned a share remaining at 1 h in “physchem” of 88%. In addition, in “physchem”, the fraction remaining at 3 h came out at 87%.

On to `Cc1c(-c2ccccc2)oc2c(C(=O)OC3CCN(C)CC3)cccc2c1=O` [Active compound 10, 1-methyl-4-piperidinyl], for which the LD50 came out at 150 µmol/kg in “in vivo” (ip) and 850 µmol/kg in the series “in vivo” (po). Also, in “physchem”, the share remaining at 1 h came to 100%. This compound registered a share remaining at 3 h in the series “physchem” of 100%.

Take `Cc1c(-c2ccccc2)oc2c(C(=O)OC3CCCN(C)C3)cccc2c1=O.Cl` (centres unmarked) [Active compound 11, N-methyl-3-piperidyl 3-methylflavone-8-carboxylate hydrochloride]: the LD50 in “in vivo” (ip) amounted to 360 µmol/kg. For the same compound, the median lethal dose (LD50) in the series “in vivo” (po) stood at 770 µmol/kg. Moreover, in “physchem”, the amount remaining at 1 h worked out at 100% and the share remaining at 3 h is 100%.

Regarding `Cc1c(-c2ccccc2)oc2c(C(=O)OC3CC4CCC(C3)N4C)cccc2c1=O` (centres unmarked) [Active compound 12, 3-tropinyl-3-methylflavone-8-carboxylate], the IC50 was determined as 4.3 µM in the series on guinea pig ileum; 20 µM in series [2] (read-out: Antispastic Activity Isolated Ureter ED50, circular contractions); 9 µM in series [2] (read-out: Antispastic Activity Isolated Ureter ED50, longitudinal contractions). In addition, the values for the LD50 in the series “in vivo” (ip) and in “in vivo” (po) were 420 µmol/kg and 950 µmol/kg, respectively. This compound showed a share remaining at 1 h in “physchem” of 100%. The same compound gave a fraction remaining at 3 h in “physchem” of 100%.

With `Cc1c(-c2ccccc2)oc2c(C(=O)OCCN3CCCCC3)cccc2c1=O` [FLAVOXATE, 2-(N-piperidino)ethyl 3-methylflavone-8-carboxylate hydrochloride, reference compound], the IC50 in series [1] turned out to be 25 µM; in the series with guinea pig ileum (setting [3]) it was 5.6 µM. Moreover, the 50% lethal dose (LD50) in “in vivo” (ip) worked out at 900 µmol/kg; in the series “in vivo” (po), 1890 µmol/kg. In the series “physchem”, this compound gave a fraction remaining at 1 h of 22%. Besides, the share remaining at 3 h in “physchem” was found to be 10%.
